Source: ChEMBL document CHEMBL3045247, “GUANIDINES: FROM MOLECULE TO PRIMATE” (2004)

Columns and labels:
Design in all cases: scale not given: the % may be the effect or the level left
[1] = system: Papio ursinus; experiment: Cardioprotective activity in Papio ursinus (baboon) ischaemic reperfusion injury model assessed as reduction of systolic blood pressure at 1 mg/kg, iv after 25 min; format: functional, Artery
[2] = system: Papio ursinus; experiment: Cardioprotective activity in Papio ursinus (baboon) ischaemic reperfusion injury model assessed as reduction of systolic blood pressure at 2 mg/kg, iv after 10 min; format: functional, Artery
[3] = system: Papio ursinus; experiment: Cardioprotective activity in Papio ursinus (baboon) ischaemic reperfusion injury model assessed as reduction of heart rate at 2 mg/kg, iv after 10 min relative to control; format: functional
[4] = system: Papio ursinus; experiment: Cardioprotective activity in Papio ursinus (baboon) ischaemic reperfusion injury model assessed as reduction of heart rate at 2 mg/kg, iv after 25 min relative to control; format: functional
[5] = system: Papio ursinus; experiment: Cardioprotective activity in Papio ursinus (baboon) ischaemic reperfusion injury model assessed as reduction of heart rate at 1 mg/kg, iv after 10 min relative to control; format: functional
[6] = system: Papio ursinus; experiment: Cardioprotective activity in Papio ursinus (baboon) ischaemic reperfusion injury model assessed as reduction of systolic blood pressure at 1 mg/kg, iv after 4 min; format: functional, Artery
[7] = system: Papio ursinus; experiment: Cardioprotective activity in Papio ursinus (baboon) ischaemic reperfusion injury model assessed as reduction of heart rate at 1 mg/kg, iv after 6 min relative to control; format: functional
[8] = system: Papio ursinus; experiment: Cardioprotective activity in Papio ursinus (baboon) ischaemic reperfusion injury model assessed as reduction of systolic blood pressure at 1 mg/kg, iv after 10 min; format: functional, Artery
[9] = system: Papio ursinus; experiment: Cardioprotective activity in Papio ursinus (baboon) ischaemic reperfusion injury model assessed as reduction of diastolic blood pressure at 1 mg/kg, iv after 6 min; format: functional, Artery
[10] = system: Papio ursinus; experiment: Cardioprotective activity in Papio ursinus (baboon) ischaemic reperfusion injury model assessed as reduction of diastolic blood pressure at 2 mg/kg, iv after 2 min; format: functional, Artery
[11] = system: Papio ursinus; experiment: Cardioprotective activity in Papio ursinus (baboon) ischaemic reperfusion injury model assessed as reduction of heart rate at 1 mg/kg, iv after 2 min relative to control; format: functional
[12] = system: Papio ursinus; experiment: Cardioprotective activity in Papio ursinus (baboon) ischaemic reperfusion injury model assessed as reduction of diastolic blood pressure at 2 mg/kg, iv after 15 min; format: functional, Artery
[13] = system: Papio ursinus; experiment: Cardioprotective activity in Papio ursinus (baboon) ischaemic reperfusion injury model assessed as reduction of systolic blood pressure at 2 mg/kg, iv after 20 min; format: functional, Artery
[14] = system: Papio ursinus; experiment: Cardioprotective activity in Papio ursinus (baboon) ischaemic reperfusion injury model assessed as reduction of diastolic blood pressure at 1 mg/kg, iv after 10 min; format: functional, Artery
[15] = system: Papio ursinus; experiment: Cardioprotective activity in Papio ursinus (baboon) ischaemic reperfusion injury model assessed as reduction of heart rate at 1 mg/kg, iv after 20 min relative to control; format: functional
[16] = system: Papio ursinus; experiment: Cardioprotective activity in Papio ursinus (baboon) ischaemic reperfusion injury model assessed as reduction of heart rate at 1 mg/kg, iv after 15 min relative to control; format: functional
[17] = system: Papio ursinus; experiment: Cardioprotective activity in Papio ursinus (baboon) ischaemic reperfusion injury model assessed as reduction of heart rate at 1 mg/kg, iv after 25 min relative to control; format: functional
[18] = system: Papio ursinus; experiment: Cardioprotective activity in Papio ursinus (baboon) ischaemic reperfusion injury model assessed as reduction of diastolic blood pressure at 2 mg/kg, iv after 20 min; format: functional, Artery
[19] = system: Papio ursinus; experiment: Cardioprotective activity in Papio ursinus (baboon) ischaemic reperfusion injury model assessed as reduction of systolic blood pressure at 2 mg/kg, iv after 25 min; format: functional, Artery
[20] = system: Papio ursinus; experiment: Cardioprotective activity in Papio ursinus (baboon) ischaemic reperfusion injury model assessed as reduction of diastolic blood pressure at 2 mg/kg, iv after 4 min; format: functional, Artery
[21] = system: Papio ursinus; experiment: Cardioprotective activity in Papio ursinus (baboon) ischaemic reperfusion injury model assessed as reduction of diastolic blood pressure at 1 mg/kg, iv after 4 min; format: functional, Artery
[22] = system: Papio ursinus; experiment: Cardioprotective activity in Papio ursinus (baboon) ischaemic reperfusion injury model assessed as reduction of diastolic blood pressure at 2 mg/kg, iv after 6 min; format: functional, Artery
[23] = system: Papio ursinus; experiment: Cardioprotective activity in Papio ursinus (baboon) ischaemic reperfusion injury model assessed as reduction of diastolic blood pressure at 2 mg/kg, iv after 25 min; format: functional, Artery
[24] = system: Papio ursinus; experiment: Cardioprotective activity in Papio ursinus (baboon) ischaemic reperfusion injury model assessed as reduction of systolic blood pressure at 2 mg/kg, iv after 6 min; format: functional, Artery
[25] = system: Papio ursinus; experiment: Cardioprotective activity in Papio ursinus (baboon) ischaemic reperfusion injury model assessed as reduction of diastolic blood pressure at 1 mg/kg, iv after 15 min; format: functional, Artery
[26] = system: Papio ursinus; experiment: Cardioprotective activity in Papio ursinus (baboon) ischaemic reperfusion injury model assessed as reduction of systolic blood pressure at 2 mg/kg, iv after 4 min; format: functional, Artery
[27] = system: Papio ursinus; experiment: Cardioprotective activity in Papio ursinus (baboon) ischaemic reperfusion injury model assessed as reduction of systolic blood pressure at 1 mg/kg, iv after 6 min; format: functional, Artery
[28] = system: Papio ursinus; experiment: Cardioprotective activity in Papio ursinus (baboon) ischaemic reperfusion injury model assessed as reduction of systolic blood pressure at 2 mg/kg, iv after 15 min; format: functional, Artery
[29] = system: Papio ursinus; experiment: Cardioprotective activity in Papio ursinus (baboon) ischaemic reperfusion injury model assessed as reduction of heart rate at 2 mg/kg, iv after 15 min relative to control; format: functional
[30] = system: Papio ursinus; experiment: Cardioprotective activity in Papio ursinus (baboon) ischaemic reperfusion injury model assessed as reduction of systolic blood pressure at 1 mg/kg, iv after 20 min; format: functional, Artery
[31] = system: Papio ursinus; experiment: Cardioprotective activity in Papio ursinus (baboon) ischaemic reperfusion injury model assessed as reduction of heart rate at 2 mg/kg, iv after 20 min relative to control; format: functional
[32] = system: Papio ursinus; experiment: Cardioprotective activity in Papio ursinus (baboon) ischaemic reperfusion injury model assessed as reduction of systolic blood pressure at 1 mg/kg, iv after 2 min; format: functional, Artery
[33] = system: Papio ursinus; experiment: Cardioprotective activity in Papio ursinus (baboon) ischaemic reperfusion injury model assessed as reduction of diastolic blood pressure at 1 mg/kg, iv after 2 min; format: functional, Artery
[34] = system: Papio ursinus; experiment: Cardioprotective activity in Papio ursinus (baboon) ischaemic reperfusion injury model assessed as reduction of heart rate at 1 mg/kg, iv after 4 min relative to control; format: functional
[35] = system: Papio ursinus; experiment: Cardioprotective activity in Papio ursinus (baboon) ischaemic reperfusion injury model assessed as reduction of diastolic blood pressure at 2 mg/kg, iv after 10 min; format: functional, Artery
[36] = system: Papio ursinus; experiment: Cardioprotective activity in Papio ursinus (baboon) ischaemic reperfusion injury model assessed as reduction of heart rate at 2 mg/kg, iv after 4 min relative to control; format: functional
[37] = system: Papio ursinus; experiment: Cardioprotective activity in Papio ursinus (baboon) ischaemic reperfusion injury model assessed as reduction of diastolic blood pressure at 1 mg/kg, iv after 20 min; format: functional, Artery
[38] = system: Papio ursinus; experiment: Cardioprotective activity in Papio ursinus (baboon) ischaemic reperfusion injury model assessed as reduction of heart rate at 2 mg/kg, iv after 6 min relative to control; format: functional
[39] = system: Papio ursinus; experiment: Cardioprotective activity in Papio ursinus (baboon) ischaemic reperfusion injury model assessed as reduction of heart rate at 2 mg/kg, iv after 2 min relative to control; format: functional
[40] = system: Papio ursinus; experiment: Cardioprotective activity in Papio ursinus (baboon) ischaemic reperfusion injury model assessed as reduction of systolic blood pressure at 1 mg/kg, iv after 15 min; format: functional, Artery
[41] = system: Papio ursinus; experiment: Cardioprotective activity in Papio ursinus (baboon) ischaemic reperfusion injury model assessed as reduction of diastolic blood pressure at 1 mg/kg, iv after 25 min; format: functional, Artery
[42] = system: Papio ursinus; experiment: Cardioprotective activity in Papio ursinus (baboon) ischaemic reperfusion injury model assessed as reduction of systolic blood pressure at 2 mg/kg, iv after 2 min; format: functional, Artery

**Q.** What does the source list for `COc1ccc(/C=N/NC(=N)N)c(Cl)c1OC`?
**A.** Activity [1]: 16.22%; Activity [2]: 7.45%; Activity [3]: 18.88%; Activity [4]: 27.74%; Activity [5]: 15.96%; Activity [6]: 0.3%; Activity [7]: 14.6%; Activity [8]: 3.62%; Activity [9]: 3.8%; Activity [10]: 10.1%; Activity [11]: 5.33%; Activity [12]: 2.2%; Activity [13]: 8.48%; Activity [14]: 7.58%; Activity [15]: 15.6%; Activity [16]: 15.47%; Activity [17]: 18.28%; Activity [18]: 4.9%; Activity [19]: 9.54%; Activity [20]: 4.24%; Activity [21]: 2.67%; Activity [22]: 1.78%; Activity [23]: 2.78%; Activity [24]: 5.72%; Activity [25]: 15.16%; Activity [26]: 3.1%; Activity [27]: 0.26%; Activity [28]: 6.84%; Activity [29]: 19.68%; Activity [30]: 10.56%; Activity [31]: 19.52%; Activity [32]: 0.02%; Activity [33]: 0.02%; Activity [34]: 10.77%; Activity [35]: 1.02%; Activity [36]: 17.1%; Activity [37]: 31.36%; Activity [38]: 18.96%; Activity [39]: 12.95%; Activity [40]: 9.36%; Activity [41]: 20.31%; Activity [42]: 5.24%
